These results are taken from the Kinase Knowledgebase extract (Sharma et al. 2016).

The IC50 is the point on the concentration scale where inhibition reaches its midpoint. A higher IC50 goes with weaker potency in that assay.

Test [1] addresses MAPK14 (human) (UniProt Q16539). The experiment in a line: Assessment of MAPK14 Kinase Activity.
Test [2] shares this target. The experiment in a line: Inhibition of MAPK14 Kinase Activity.

Sequence of MAPK14 (human) (Q16539 whole entry, looked up): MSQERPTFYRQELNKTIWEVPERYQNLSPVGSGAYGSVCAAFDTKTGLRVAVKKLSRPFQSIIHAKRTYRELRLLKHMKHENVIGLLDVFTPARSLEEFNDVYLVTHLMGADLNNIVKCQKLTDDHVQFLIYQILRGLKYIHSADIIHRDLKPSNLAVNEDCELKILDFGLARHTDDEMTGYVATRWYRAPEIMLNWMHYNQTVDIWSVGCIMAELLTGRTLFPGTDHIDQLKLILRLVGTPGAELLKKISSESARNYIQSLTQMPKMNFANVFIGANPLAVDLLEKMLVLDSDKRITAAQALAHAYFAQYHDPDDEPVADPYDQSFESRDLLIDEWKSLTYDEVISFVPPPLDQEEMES

In the case of `Cc1c(F)cc(C(=O)NC2CC2)cc1-c1ccc(C(=O)NC(C)c2ccc(Cl)cc2)c[n+]1[O-]` (centres undefined), the IC50 in test [1] and in test [2] was less than 10 µM in each case.

`Cc1c(F)cc(C(=O)NC2CC2)cc1-c1ccc(C(=O)NCc2ccc(C(F)(F)F)cc2C(F)(F)F)c[n+]1[O-]`: the IC50 in test [1] and in test [2] was less than 10 µM throughout.

Regarding `CCCNC(=O)c1ccc(-c2cc(C(=O)NC3CC3)cc(F)c2C)[n+]([O-])c1`, the IC50 in test [1] and in test [2] was less than 10 µM throughout.

As for `Cc1ccc(C)c(CNC(=O)c2ccc(-c3cc(C(=O)NC4CC4)cc(F)c3C)[n+]([O-])c2)c1`, the concentration for half-maximal inhibition (IC50) in test [1] and in test [2] was less than 10 µM each time.

Turning to `CCC(CC)NC(=O)c1ccc(-c2cc(C(=O)NC3CC3)cc(F)c2C)[n+]([O-])c1`, the IC50 in test [1] and in test [2] was less than 10 µM each time.

Take `CCc1ccccc1CNC(=O)c1ccc(-c2cc(C(=O)NC3CC3)cc(F)c2C)[n+]([O-])c1`: the IC50 in test [1] and in test [2] was less than 10 µM in each case.

Regarding `Cc1ccc(CNC(=O)c2ccc(-c3cc(C(=O)NC4CC4)cc(F)c3C)[n+]([O-])c2)cc1C`, the concentration for half-maximal inhibition (IC50) in test [1] and in test [2] was less than 10 µM each time.

For the molecule `Cc1c(F)cc(C(=O)NC2CC2)cc1-c1ccc(C(=O)N[C@H](C)C(C)C)c[n+]1[O-]`, the 50% inhibitory concentration (IC50) in test [1] and in test [2] was less than 10 µM each time.

As for `Cc1c(F)cc(C(=O)NC2CC2)cc1-c1ccc(C(=O)NCC(C)(C)C)c[n+]1[O-]`, the IC50 in test [1] and in test [2] was less than 10 µM each time.

With `CCC(C)(C)NC(=O)c1ccc(-c2cc(C(=O)NC3CC3)cc(F)c2C)[n+]([O-])c1`, the 50% inhibitory concentration (IC50) in test [1] and in test [2] was less than 10 µM throughout.

As to `CCC1CCCN(C(=O)c2ccc(-c3cc(C(=O)NC4CC4)cc(F)c3C)[n+]([O-])c2)C1` (centres undefined), the IC50 in test [1] and in test [2] was less than 10 µM each time.

With `COC[C@H](C)NC(=O)c1ccc(-c2cc(C(=O)NC3CC3)cc(F)c2C)[n+]([O-])c1`, the half-maximal inhibitory concentration (IC50) in test [1] and in test [2] was less than 10 µM each time.
